Test results as given in paper PMC8596838, “Xylose‐Configured Cyclophellitols as Selective Inhibitors for Glucocerebrosidase” (Chembiochem, 2021).

How the values were obtained:
[1] = target: T1, rhGBA (recombinant human GBA, Imiglucerase) (Homo sapiens, UniProt P04062, R534H); assay: Fluorogenic substrate (4-MU-β-D-glucoside) enzymatic assay, rhGBA; format: biochemical; details: for IC50: enzymatic assay performed for 3 h, n=3, read-out: In vitro apparent IC50 rhGBA, 3 h
T1 construct: purchased Sanofi Genzyme (Cambridge, MA, USA)
T1 sequence (P04062 40-536 R534H): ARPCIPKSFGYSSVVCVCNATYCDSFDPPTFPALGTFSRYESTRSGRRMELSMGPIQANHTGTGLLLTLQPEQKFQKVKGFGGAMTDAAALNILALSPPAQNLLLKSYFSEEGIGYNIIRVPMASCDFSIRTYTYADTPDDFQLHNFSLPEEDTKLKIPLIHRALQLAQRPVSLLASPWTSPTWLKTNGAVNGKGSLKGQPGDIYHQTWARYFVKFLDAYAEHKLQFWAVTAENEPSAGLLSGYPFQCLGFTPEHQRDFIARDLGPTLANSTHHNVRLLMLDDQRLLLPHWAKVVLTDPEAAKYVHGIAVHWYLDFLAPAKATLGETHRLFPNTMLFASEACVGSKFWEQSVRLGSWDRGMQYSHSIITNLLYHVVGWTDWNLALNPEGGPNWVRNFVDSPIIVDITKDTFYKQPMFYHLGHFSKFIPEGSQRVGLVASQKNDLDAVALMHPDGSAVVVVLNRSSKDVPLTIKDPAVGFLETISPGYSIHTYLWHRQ

GBA3 = target: T2, GBA3 (Homo sapiens, UniProt Q9H227); assay: Inhibition in intact HEK293T cells (24 h), read out by cABPP with ABP 10, GBA3; format: cell-based; details: for IC50: 24 h treatment, cABPP quantification, n=3; for GBA3/GBA ratio, intact cells: IC50 ratio, 24 h
T2 construct: expressed in transfected cells; host or cells: HEK293T (GBA/GBA2 KO background for the fluorogenic assay; endogenous-GBA background with GBA2 and GBA3 overexpressed for ABPP and intact-cell assays)
T2 sequence (Q9H227 1-469): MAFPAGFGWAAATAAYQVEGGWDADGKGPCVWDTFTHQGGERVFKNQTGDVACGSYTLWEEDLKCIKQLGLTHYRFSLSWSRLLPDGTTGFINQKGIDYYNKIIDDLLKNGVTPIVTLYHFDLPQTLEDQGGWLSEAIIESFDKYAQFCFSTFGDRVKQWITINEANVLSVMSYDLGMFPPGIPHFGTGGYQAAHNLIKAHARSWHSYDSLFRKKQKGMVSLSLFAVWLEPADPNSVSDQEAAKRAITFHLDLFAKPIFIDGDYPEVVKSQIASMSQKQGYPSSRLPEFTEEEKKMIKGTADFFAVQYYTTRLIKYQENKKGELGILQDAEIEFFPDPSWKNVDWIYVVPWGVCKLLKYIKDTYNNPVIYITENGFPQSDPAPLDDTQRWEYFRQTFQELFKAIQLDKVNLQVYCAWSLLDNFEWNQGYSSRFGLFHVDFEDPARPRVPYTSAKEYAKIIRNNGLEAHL
Excerpt: We next examined the activity of 1 and 2 towards the three human β‐D‐glucosidase in intact HEK293T cells. […] It is noted that the GBA‐selectivity of both compounds is much improved in intact cells than in the in vitro system (Figure 2 and Table 1). This is especially true for compound 1, where an impressive 4‐logs of selectivity window is observed.
Figure 5 Inhibitory effect of β‐D‐xylo‐configured cyclophellitol 1 and cyclophellitol aziridine 2 on β‐glucosidases in intact HEK293T cells expressing GBA, GBA2 and GBA3. (A) Representative gel images of cABPP where cells were treated for 24 h with indicated inhibitor. Lysates were then prepared and labeled with fluorescent ABP 10. Fluorescently labeled proteins were visualized after SDS‐PAGE (1 set from n=3 replicates). (B) IC50 curves determined by cABPP labeling results. (C) Apparent IC50 values towards β‐glucosidases in intact HEK293T cells producing GBA, GBA2 and GBA3 were determined by the fluorescence quantification based on cABPP SDS‐PAGE results.
ABP labeling procedure: Glycosidases were labeled with excess fluorescent ABPs at optimum conditions. ABP labeling was performed at 37 °C for 30 min for all materials (if not otherwise stated), in a total sample volume of 20–40 μL and 0.5–1 % DMSO concentration. GBA was labeled with 200 nM ABP 9 (pH 5.2, 0.1 % (v/v) Triton‐100, 0.2 % (w/v) sodium taurocholate), or labeled together with GBA2 using 200 nM β‐D‐glucose‐configured aziridine ABP 10 at pH 5.8, or labeling together with GBA2 and GBA3 using 200 nM β‐D‐glucose‐configured aziridine ABP 10 at pH 6.0. After ABP incubation, proteins were denatured by boiling the samples with 5× Laemmli buffer (50 % (v/v) 1 M Tris‐HCl, pH 6.8, 50 % (v/v) 100 % glycerol, 10 % (w/v) DTT, 10 % (w/v) SDS, 0.01 % (w/v) bromophenol blue) for 5 min at 98 °C, and separated by electrophoresis on 10 % (w/v) SDS‐PAGE gels running continuously at 90 V. Wet slab‐gels were scanned on fluorescence using the Typhoon FLA 9500 (GE Healthcare) at λEX 473 nm and λEM≥510 nm for green fluorescent ABP 8; and at λEX 635 nm and λEM≥665 nm for ABP 6, 9 and 10. ABP‐emitted fluorescence was quantified using ImageQuant software (GE Healthcare, Chicago, IL, USA) and curve‐fitted using Prism 8.0 (GraphPad Software). After fluorescence scanning, SDS‐PAGE gels were stained for total protein with Coomassie G250 and scanned on a ChemiDoc MP imager (Bio‐Rad, Hercules, CA, USA).[25]
Assessment of inhibitor activity in cultured cells: Confluent HEK293T stably expressing human GBA and GBA2 GBA3 overexpressing were cultured in 24‐well plates in triplicates with(out) inhibitors for 24 h at 37 °C with 7 % CO2. […]

Row | SMILES | IC50 [1] | IC50 (GBA3) | GBA3/GBA ratio, intact cells (GBA3) | increase in inhibitory activity towards GBA of aziridines relative to epoxide analogues ([1]; in vitro 3 h)
1 | O[C@@H]1[C@@H](O)[C@H](O)C[C@H]2O[C@@H]12 [compound 1, xylo‐cyclophellitol] | 450 ± 20 nM | > 100000 nM | > 10000 | 
2 | O[C@@H]1[C@@H](O)[C@H](O)C[C@H]2N[C@@H]12 [compound 2, β‐D‐xylo‐Cyclophellitol aziridine] | 240 ± 30 nM | 48900 ± 12700 nM | 1159 | less than two‐fold increase
